Patent publication US20220380430A1, “Non-Transgenic Functional Rescue of Neuropeptides” (Worcester Polytechnic Institute, priority 2021, published 2022)
No end group written: not given here.

How the values were obtained:
[1] = tested on: trh-1 mutant worms; experiment: Size comparison (body volume) after rescue-by-feeding; assay type: in vivo, C. elegans; conditions: trh-1 mutant animals fed peptide; N2 set as 100%
Description: (§1) All animals were maintained on bacterial lawns of OP50 E. coli, at 20° C., on NGM agar plates until the start of experiments. Mutant or control animals were transferred onto lawns of DH5α E. coli expressing either scramble peptide or the rescue peptide-of-interest on NGM plates containing […] AMP and 1 mM IPTG. Animals were reared on the peptide-expressing lawns for at least 48 hours at 20° C. before assaying for rescue of mutant phenotype at the appropriate developmental stage.
The body morphology different of trh-1 mutants was compared to wild-type worms by body volume measurements. Wild-type (N2) and trh-1 animals were synchronized by embryonic starvation following alkaline hypochlorite protocols. Ten gravid hermaphrodites from OP50 E. coli plates were picked into 30 μL drops of alkaline hypochlorite solution (20% sodium hypochlorite, 500 mM KOH). Two drops were placed on either side of an unseeded NGM plate, resulting in 20 animals per plate. Plates were then incubated for 24 hours at 20° C. before L1 larval animals washed with 1 mL M9 (22 mM KH2PO4, 42.25 mM Na2HPO4, 85.5 mM NaCl, 1 mM MgSO4) per unseeded NGM plate. Allow L1 worms to settle into pellet before removing M9 supernatant. Repeat washing step 2 more times. Plate worm pellet onto NGM with […] AMP and 1 mM IPTG plates containing 75 μL peptide lawns.
After at 48 hours at 20° C., animals were recorded using a Basler acA2500-14 uM camera using WormLab software (WormLab 4.1; MBF Bioscience, 2017) for 65 seconds. Worm length, width, and area were calculated within the WormLab software (FIG. 5C-FIG. 5H). As the WormLab worm width metric is an average of cross-sections throughout the length of each worm, this was used to calculate the volume of a worm as a cylinder, with the Volume=π*(0.5*width)^2*length (FIG. 2A-FIG. 2B, FIG. 5A-FIG. 5B).
Two to four plates were recorded per day for at least three days to generate data sets. Control plates of N2 and trh-1 animals raised on the scramble peptide were grown alongside every rescue feeding. Each “worm track” was considered an n=1. Tracks were excluded if (1) worm tracks less than 10 seconds, or (2) worms were further than two standard deviations from the mean metric. Following tests for normality, comparisons were made using either Mann-Whitney tests for direct comparisons between N2 and trh-1 animals reared on OP50, or Kruskal-Wallis non-parametric ANOVAs and Dunn's multiple comparisons tests for animals raised on peptide feeding strains. Comparisons were made for metrics: length (FIG. 5C-FIG. 5D), width (FIG. 5e-FIG. 5F), area (FIG. 5G-FIG. 5H), and volume (FIG. 2A-FIG. 2B, FIG. 5A-FIG. 5B).

[2] = tested on: ins-6 lof worms; experiment: NaCl chemotaxis assay after rescue-by-feeding; assay type: in vivo, C. elegans; conditions: ins-6 mutants; 750 mM NaCl
Description: as §1
A salt chemotaxis assay was performed as previously described in Leinwand, S. G. & Chalasani, S. H. Nature neuroscience 16, 1461-1467 (2013); Bargmann, C. I. & Horvitz, H. R. Neuron 7, 729-742 (1991) to test the functionality of ins-6 after rescue-by-feeding. Wild-type (N2) and ins-6 worms were fed either scramble or INS-6 peptide passing 4-6 L4 larval onto an NGM plate containing […] AMP and 1 mM IPTG with 75 μL of peptide OD600=1.0. These worms were grown at 20° C. for about 4 days until the progeny of the initial L4 worms were young adults.
The day prior to testing, a thin, 10 mL layer of agar was added to 10 cm petri dishes to generate a 10 cm Chemotaxis Plates (5 mM KPO4 (pH 6.0), 1 μM MgSO4, 1 μM CaCl2), 20 g/L agar, and 8 g/L Difco Nutrient Broth). To prepare the “high salt” plates, 750 mM NaCl was added prior to plate pouring. The high salt plate were stored at 4° C. for up to one month, while the Chemotaxis Plates were made one day prior to testing. To create the high and low salt plugs, the back end of a Pasteur pipette was used to punch a 5 mm plug out of each plate. These 2 plugs were placed on opposite edges of the plate. A 10 mm radius was be drawn around the location of the plugs (FIG. 1). Plates were stored, lightly covered, overnight at room temperature (˜20° C., <40% humidity). […]
Young adult hermaphrodites are tested in the Chemotaxis Assay with no more than three replicates per day, over a minimum of three days, with 100-200 worms/assay plate. The […] Chemotaxis Index (CI) was calculated as follows: […]

NSKLHRGGGRSRTSGSTGSMASHARGSPGLQ-NH2 [SCRAMBLE, scramble control peptide expressed in E. coli DH5α, negative control, reference compound]
Relative Body Volume [1]: ~120% | Chemotaxis Index [2]: less than 0.4
